In patent US20100284966A1 (priority 2005, published 2010):

Test system: HCV replicon

`Cn1cnc([N+](=O)[O-])c1Sc1ncnc2[nH]cnc12` [AZA] was tested, and the “fewer cells (toxicity)” value was ~10%.
